Laboratory results reported in PubChem BioAssay AID1626 (SRMLSC, 2009).

Tested on: M. tuberculosis H37Rv growth inhibition
Experiment: M. tuberculosis H37Rv growth inhibitors, H37Rv strain (AID 1626)
Details: for IC90: measured here: IC90 against H37Rv; for CC50: measured here: Vero cell cytotoxicity

SMILES	IC50 [µM]	IC90 [µM]	CC50 [µM]
CC(=O)c1ccc(NC(=O)CSCC(=O)Nc2ccc3ccccc3c2)cc1	51	> 100	–
Cc1cc(C2N=C(N)Nc3nc4ccccc4n32)c(C)n1-c1ccccc1Cl (stereo unspecified)	7.61	12.2	–
Cc1ccc(/C=C/C(=O)C2C(=O)c3ccccc3C2=O)cc1	3.39	5.29	> 40
COc1ccccc1NC(=O)CN1CCN(C2c3ccccc3-c3ccccc32)CC1	–	> 100	> 40
Cc1ccc(C)c(/C=C/C(=O)c2ccccc(=O)c2O)c1	–	–	4.93
CCCOc1ccc(NCC(=O)Nc2ccc(C)cc2C)cc1	< 0.391	> 100	–
CC(C)(C)c1nn(-c2ccccc2)c2[nH]c(=O)c(CNCc3ccc4c(c3)OCO4)cc12	11.3	13.8	> 40
O=c1c2cc(Cl)ccc2oc2nc3n(c(=O)c12)CCCS3	0.803	8.71	–
COc1cccc(C(=O)Oc2ccccc2/C=C\C(=O)c2cc3ccccc3o2)c1	3.43	5.83	11.4
Cc1ccc(CNC(=O)c2ccc([N+](=O)[O-])o2)cc1	< 0.391	2.89	8.28
COc1cc(OC)cc(C(=O)Nc2nc3ccccc3[nH]2)c1	15.9	> 100	> 40
CC(C)C1N=C(c2ccc3c(c2)OCO3)CC(c2ccccc2O)N1 (stereo unspecified)	10.6	14.3	26.8
Cc1ccc(C(=O)NCCSC(C)(C)C)cc1[N+](=O)[O-]	2.96	3.32	–
O=S(=O)(Nc1nc2ccccc2nc1Nc1ccc(N2CCOCC2)cc1)c1cc(Cl)ccc1Cl	–	> 100	22.3
Cc1cc(C)c(N=Cc2c(O)n(-c3nccs3)c(=O)c3ccccc23)c(C)c1	13.1	71.4	–
CCOC(=O)c1sc(NC(=O)CNCc2ccccn2)c(C(=O)OCC)c1C	2.77	4.22	> 40
CCOC(=O)CSc1nnc(-c2cc(OC)c(OC)c(OC)c2)o1	1.62	4.38	–
COc1ccc(/C=C/c2cc(-c3ccc(C)cc3)o[n+]2C)cc1	3.21	7.34	> 40
Cc1c(Cc2ccccc2)c(=O)n2c([nH]c3ccccc32)c1C#N	3.04	> 100	13
CCCOC(=O)c1ccc(NC(=O)C2CCCO2)cc1 (stereo unspecified)	10.3	> 100	–
CCN1CCN(Cc2ccc(NC(=O)c3ccc(C)c(NC(=O)C(=O)c4c[nH]c5ccccc45)c3)cc2C(F)(F)F)CC1	4.32	5.57	6.73

SMILES	IC50 [µM]	IC90 [µM]	CC50 [µM]
CC(NC(=O)c1ccc(Br)cc1)c1ccc2c(c1)CCCC2 (stereo unspecified)	15.4	> 100	–
O=C(Oc1ccc2ccc(O)cc2c1)C1CCCCC1	–	> 100	–
CCCn1c(NC(=O)c2ccccc2)nc2ccccc21	3.89	> 100	> 40
COc1ccc(NC2=NCC(Cc3ccc(Br)cc3)S2)cc1 (stereo unspecified)	10.2	15.9	> 40
Nc1ncnc2c1ccn2[C@@H]1O[C@H](CO)[C@@H](O)[C@H]1O	2.44	3.87	0.131
O=C1c2cccc3c([N+](=O)[O-])ccc(c23)C(=O)N1c1ccccn1	7.34	10.5	12.2
COc1ccc(N/C=C/C(=O)c2ccc(Cl)cc2)cc1	–	–	> 40
COc1cccc(C(=O)Nc2nc(-c3ccccc3)c(-c3ccccc3)o2)c1	< 0.195	6.62	> 40
O=C(NCCc1nc2ccccc2[nH]1)/C(=C/c1ccc2c(c1)OCO2)NC(=O)c1ccc(Cl)cc1Cl	20.6	52.9	–
CCCCn1c(O)c(C(C)=Nc2ccc(OCC)cc2)c(=O)[nH]c1=O	5.45	> 100	> 40
Cc1ccc2[nH]c3c(N4CCc5ccccc5C4)ncnc3c2c1	11.8	25.8	10.8
CCOc1ccc(NC2c3ccccc3C(=O)N2Cc2ccco2)cc1 (stereo unspecified)	19.1	> 100	–
Oc1ccccc1N1CCN(c2ncnc3sc(-c4ccccc4)cc23)CC1	9.21	13	> 40
Cc1c(C(=O)Nc2nc3ccccc3[nH]2)oc2ccccc12	1.29	4.5	> 40
Cc1ccc(-c2ccc(SCC(=O)Nc3nonc3C)nn2)cc1	1.79	3.88	–
Cc1ccccc1N=Nc1ccc(O)c2ncccc12	21.1	> 100	0.933
CCOC(=O)C1CCCN(c2ccc([N+](=O)[O-])c3nonc23)C1 (stereo unspecified)	1.46	1.6	–
COc1ccc(N2CSC3=C(C#N)C(c4cccc(OC)c4OC)CC(=O)N3C2)cc1 (stereo unspecified)	54.7	> 100	–
C=CCn1c(O)c(C(C)=Nc2ccc(C(=O)OCC)cc2)c(=O)[nH]c1=O	14	> 100	–
Oc1c(Cl)cc(Cl)c2cccnc12	0.779	0.858	11.9
Cc1ccc(C(=O)Oc2cccc(NC(=O)c3ccccc3)c2)cc1C	7.76	12.9	–

SMILES	IC50 [µM]	IC90 [µM]	CC50 [µM]
Cc1ccc(OCCN2CCN(CC(O)Cn3c4ccccc4c4ccccc43)CC2)cc1 (stereo unspecified)	9.21	11.4	21.5
O=C(Nc1nc(-c2ccccn2)cs1)C1CC1	3.96	> 100	> 40
COCc1cc(S(=O)c2ccc(Cl)cc2)nc(C)n1 (stereo unspecified)	15.1	24.3	22.1
C=CCSc1nnc(-c2ccc([N+](=O)[O-])cc2)o1	< 0.195	0.843	–
CC(C)CCN1C(=O)c2ccc(-c3nc4ccccc4c(=O)o3)cc2C1=O	5.26	> 100	–
CCc1nc2sc3ccccc3c(=O)c2c(=O)n1Cc1ccc(OC)cc1	6.25	8.28	> 40
COc1ccc(Nc2nc(C)c3ccccc3n2)cc1	–	–	> 40
O=C(c1ccc(CNc2c(N3CCCC3)c(=O)c2=O)cc1)N1CC=C(c2ccccc2)CC1	26.2	> 100	–
Clc1ccc(COC(Cn2ccnc2)c2ccc(Cl)cc2Cl)c(Cl)c1 (stereo unspecified)	2.85	3.27	36.8
C/C(=C\C(=S)Nc1ccccc1)Nc1ccc2ccccc2c1	4.39	48.9	> 40
N#CCc1ccc(NC(=O)/C=C/c2ccc([N+](=O)[O-])o2)cc1	< 0.391	< 0.391	0.277
CC1CCN(c2nc(-c3ccncc3)nc3ccccc23)CC1	4.62	6.52	> 40
COc1cc(NC(=O)c2ccc(Cl)cc2)c(OC)cc1NC(=O)CN1CCCCC1	8.74	16.9	–
COc1ccc(/C=C2/Sc3ccc(C(=O)N4CCc5ccccc5C4)cc3NC2=O)cc1	20	> 100	> 40
CCOc1ccc(OCC)c(NC(=O)CN2CCN(c3cc(C)ccc3C)CC2)c1	–	> 100	> 40
O=C(Nc1ccccc1OC(=O)c1ccc(Cl)cc1)c1ccc(Cl)cc1	12	18.6	–
CCCCCCCCn1cnc2c(N)c(C)c(C)cc21	15.9	21.4	–
CC(C)(C)c1cc(NCCCn2ccnc2)n2ncc(-c3ccccc3)c2n1	1.76	2.89	15.9
Cc1ccsc1C(=O)Nc1nc2ccccc2[nH]1	20.4	> 100	25.3
CN(CC(=O)Nc1ccc(Cl)c(Cl)c1)Cc1nnc(-c2ccc(F)cc2)o1	15.9	24.1	–
O=C(CSC1=NCCS1)Nc1ccc2ccccc2c1	–	> 100	–

SMILES	IC50 [µM]	IC90 [µM]	CC50 [µM]
CCN1CCN(c2cc3c(cc2F)c(=O)c(C(=O)O)cn3C2CC2)CC1	< 0.391	< 0.391	–
O=C(O)c1ccc(-c2nc(-c3ccc(Cl)cc3)cs2)cc1	88.6	> 100	> 40
CC(C)c1ccc(CNC(=O)CSCC(=O)Nc2ccc3ccccc3c2)cc1	18	> 100	–
Nc1nc(COc2ccc(Cl)cc2)cs1	–	> 100	–
COC(=O)c1cc(=O)n(-c2ccccc2)c(=Nc2ccccc2)s1	5.19	17.7	27.6
CC[C@H](CO)NCCN[C@H](CC)CO	0.778	> 100	–
Cc1cc(NC2CCCCC2)nc(NCc2ccccc2)n1	10.3	13.2	18.2
CCCCCCCn1c(=O)c(C(=O)Nc2cnccn2)c(O)c2ccccc21	< 0.195	< 0.195	2.37
Cc1cc(NC(=O)c2ccc(C)s2)n(-c2nc3ccccc3[nH]2)n1	–	–	> 40
O=S1(=O)C=C(Sc2nc3cc(Cl)ccc3o2)c2ccccc21	2.9	3.18	16.1
Cc1c(C(=O)Oc2cccc3cccnc23)oc2ccccc12	3.04	3.29	34.6
COC(=O)CCSc1cc(NCCOC(C)=O)c([N+](=O)[O-])c2nonc12	16.1	40.3	–
CCC(=O)Nc1ccc2ccccc2c1	46.5	> 100	–
CC(C)Oc1ccc(C(=O)Nc2ccc(Cl)c(S(=O)(=O)Nc3ccc(Cl)cc3)c2)cc1	11.6	22.4	28.9
O=C(Nc1nc2c(F)cc(F)cc2s1)c1ccccn1	0.34	1.49	3.89
Cc1cc(C)n(-c2nc(Nc3ccccc3C)nc(-n3nc(C)cc3C)n2)n1	88.4	> 100	–
CCOc1ccc(NC(=O)CCN2CCN(c3ccccc3F)CC2)cc1	36.3	> 100	–
Cc1cc(=O)oc2cc(Oc3ncccc3[N+](=O)[O-])ccc12	9.46	> 100	–
Cc1ccc(Cl)cc1NC1=C/C(=N\S(=O)(=O)c2cccs2)c2ccccc2C1=O	1.91	3.21	5.83
N#Cc1c(N2CCN(C(=O)c3ccco3)CC2)nc(-c2ccccc2)c2c1CCCC2	9.52	12.2	24.1
